# Assay results reported in patent US10174037B2, “Dihydropyrazolopyrimidinone compounds as PDE2 inhibitors” (Merck Sharp & Dohme Corp., priority 2015, dated 2019).
# Like-named read-outs stand apart in the source and are kept apart here.
# Legend:
# [1] = reported in Brandon et al. 2007; cited from earlier work
# other PDE isoforms = conditions: reported in Brandon et al. 2007; cited from earlier work
# Rhesus PDE2A3 = Rhesus PDE2A3 (Macaca mulatta, UniProt B3VTJ2); test: PDE2 fluorescence polarization (IMAP FP) assay, rhesus PDE2A3; assay type: biochemical, rhesus macaque
# Sequence of Rhesus PDE2A3 (B3VTJ2 1-941): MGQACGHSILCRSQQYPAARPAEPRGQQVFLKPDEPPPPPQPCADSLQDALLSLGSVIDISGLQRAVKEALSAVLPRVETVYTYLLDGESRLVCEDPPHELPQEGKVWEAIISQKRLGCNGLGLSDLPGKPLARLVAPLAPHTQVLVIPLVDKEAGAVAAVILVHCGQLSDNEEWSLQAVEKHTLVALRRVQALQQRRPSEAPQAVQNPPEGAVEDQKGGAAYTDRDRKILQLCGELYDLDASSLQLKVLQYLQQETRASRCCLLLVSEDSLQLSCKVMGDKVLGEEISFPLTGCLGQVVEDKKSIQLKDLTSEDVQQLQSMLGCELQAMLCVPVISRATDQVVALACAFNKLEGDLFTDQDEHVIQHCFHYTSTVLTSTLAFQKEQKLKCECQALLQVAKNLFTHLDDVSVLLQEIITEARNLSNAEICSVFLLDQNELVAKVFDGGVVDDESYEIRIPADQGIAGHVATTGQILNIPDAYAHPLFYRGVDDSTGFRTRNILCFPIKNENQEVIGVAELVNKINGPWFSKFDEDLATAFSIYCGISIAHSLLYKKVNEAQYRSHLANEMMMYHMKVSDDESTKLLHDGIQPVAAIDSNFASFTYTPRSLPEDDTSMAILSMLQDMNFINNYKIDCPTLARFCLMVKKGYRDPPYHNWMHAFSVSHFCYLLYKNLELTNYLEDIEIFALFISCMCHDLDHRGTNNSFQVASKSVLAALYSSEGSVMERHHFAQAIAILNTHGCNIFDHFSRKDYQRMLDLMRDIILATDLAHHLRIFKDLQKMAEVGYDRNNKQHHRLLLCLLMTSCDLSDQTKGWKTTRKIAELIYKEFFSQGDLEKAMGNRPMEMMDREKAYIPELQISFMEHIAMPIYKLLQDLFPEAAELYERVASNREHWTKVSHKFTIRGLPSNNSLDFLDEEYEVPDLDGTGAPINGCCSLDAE
# human PDE2A1 = human PDE2A1 (Homo sapiens (Human), UniProt O00408); test: PDE selectivity IMAP FP assay, human PDE2A1; assay type: biochemical; conditions: Human PDE2
# Sequence of human PDE2A1 (O00408 other isoform, or with tags, fused parts or gaps): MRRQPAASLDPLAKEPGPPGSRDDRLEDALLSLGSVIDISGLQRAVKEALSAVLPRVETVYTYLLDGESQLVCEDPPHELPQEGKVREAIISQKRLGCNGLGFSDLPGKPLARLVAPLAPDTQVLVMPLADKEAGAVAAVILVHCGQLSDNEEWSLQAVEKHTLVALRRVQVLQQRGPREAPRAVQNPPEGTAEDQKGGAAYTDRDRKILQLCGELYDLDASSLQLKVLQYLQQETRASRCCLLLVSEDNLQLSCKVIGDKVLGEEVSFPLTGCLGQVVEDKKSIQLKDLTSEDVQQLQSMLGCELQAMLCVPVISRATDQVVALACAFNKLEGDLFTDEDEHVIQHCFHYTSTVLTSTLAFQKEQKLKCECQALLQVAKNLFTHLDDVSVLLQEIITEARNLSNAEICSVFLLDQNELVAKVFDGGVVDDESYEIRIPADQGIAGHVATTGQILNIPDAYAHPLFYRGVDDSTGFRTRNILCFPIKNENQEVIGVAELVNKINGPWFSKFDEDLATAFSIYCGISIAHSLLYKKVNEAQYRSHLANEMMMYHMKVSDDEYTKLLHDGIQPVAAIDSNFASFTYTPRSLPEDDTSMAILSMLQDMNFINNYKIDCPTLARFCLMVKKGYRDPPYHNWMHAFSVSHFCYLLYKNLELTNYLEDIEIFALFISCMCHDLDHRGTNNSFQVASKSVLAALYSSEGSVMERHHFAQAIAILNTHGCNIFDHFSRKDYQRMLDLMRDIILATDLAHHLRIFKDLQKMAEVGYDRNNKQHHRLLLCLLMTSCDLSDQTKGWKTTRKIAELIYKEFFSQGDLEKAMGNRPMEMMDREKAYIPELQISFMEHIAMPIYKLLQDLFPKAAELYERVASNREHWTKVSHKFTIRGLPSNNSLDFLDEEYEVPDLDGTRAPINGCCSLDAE
# Method in brief: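 IMAP fluorescence polarization assay; PDE2 substrate 50 nM FAM-cAMP containing 1000 nM cGMP, enzyme diluted for 20% substrate conversion, in 10 mM Tris HCl pH 7.2, 10 mM MgCl2, 1 mM DTT. Reaction 60 min at room temperature, stopped with IMAP binding solution; polarization read after 1 h. Ki reported.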
# [2] = Lab A, read-out: Rhesus PDE2 Ki (nM) Lab A
# [3] = Lab A, read-out: Human PDE2 Ki (nM) Lab A
# [4] = Lab B, read-out: Rhesus PDE2 Ki (nM) Lab B
# [5] = Lab B, read-out: Human PDE2 Ki (nM) Lab B
Compound,brain penetration [1],potency at other PDE isoforms (other PDE isoforms),Ki (Rhesus PDE2A3; [2]) [nM],Ki (human PDE2A1; [3]) [nM],Ki (Rhesus PDE2A3; [4]) [nM],Ki (human PDE2A1; [5]) [nM]
COc1ccc(Cc2nn3c([C@@H](CCCc4ccccc4)[C@@H](C)O)nc(C)c3c(=O)[nH]2)cc1OC [BAY 60-7550],limited,significant potency,–,–,–,–
"Cc1ccc(C(C)n2nc(CF)c3c(=O)[nH]c(O)nc32)cc1 (stereo not drawn) [Example 37, 3-(Fluoromethyl)-6-hydroxy-1-(1-p-tolylethyl)-1H-pyrazolo[3,4-d]pyrimidin-4(5H)-one]",–,–,85,44,–,–
"CC(c1ccc(OC(F)(F)F)c(F)c1)n1nc(CF)c2c(=O)[nH]c(O)nc21 (stereo not drawn) [Example 38, 1-(1-(3-Fluoro-4-(trifluoromethoxy)phenyl)ethyl)-3-(fluoromethyl)-6-hydroxy-1H-pyrazolo[3,4-d]pyrimidin-4(5H)-one]",–,–,7.2,2.8,8.3,8.5
"O=c1[nH]c(O)nc2c1c(CF)nn2C(c1ccc(C(F)(F)F)cc1)C1CC1 (stereo not drawn) [Example 39, 1-(Cyclopropyl(4-(trifluoromethyl)phenyl)methyl)-3-(fluoromethyl)-6-hydroxy-1H-pyrazolo[3,4-d]pyrimidin-4(5H)-one]",–,–,3.6,2.2,5.5,6.3
"CC(C)C(c1ccc(C(F)(F)F)cc1)n1nc(CF)c2c(=O)[nH]c(O)nc21 (stereo not drawn) [Example 40, 3-(Fluoromethyl)-6-hydroxy-1-(2-methyl-1-(4-(trifluoromethyl)phenyl)propyl)-1H-pyrazolo[3,4-d]pyrimidin-4(5H)-one]",–,–,1.7,0.56,2,2.1
"CC(c1ccc(C(F)(F)F)cc1)n1nc(CF)c2c(=O)[nH]c(O)nc21 (stereo not drawn) [Example 41, 3-(Fluoromethyl)-6-hydroxy-1-{1-[4-(trifluoromethyl)phenyl]ethyl}-1,5-dihydro-4H-pyrazolo[3,4-d]pyrimidin-4-one]",–,–,3.5,2.3,–,–
"O=c1[nH]c(O)nc2c1c(CF)nn2C1(c2ccc(C(F)(F)F)cc2)CCC1 [Example 46, 3-(Fluoromethyl)-6-hydroxy-1-(1-(4-(trifluoromethyl)phenyl)cyclobutyl)-1H-pyrazolo[3,4-d]pyrimidin-4(5H)-one]",–,–,–,–,11,9.2
"C[C@@H](c1ccc(C(C)(C)C)cc1)n1nc(CF)c2c(=O)[nH]c(O)nc21 [Example 47, (S)-1-(1-(4-tert-Butylphenyl)ethyl)-3-(fluoromethyl)-6-hydroxy-1H-pyrazolo[3,4-d]pyrimidin-4(5H)-one]",–,–,–,–,6.9,5.1
"O=c1[nH]c(O)nc2c1c(CF)nn2[C@H](c1ccc(C(F)(F)F)c(F)c1)C1CC1 [Example 48, (S)-1-(Cyclopropyl(3-fluoro-4-(lrifluoromethyl)phenyl)methyl)-3-(fluoromethyl)-6-hydroxy-1H-pyrazolo[3,4-d]pyrimidin-4(5H)-one]",–,–,–,–,6.2,5.6
"CC(C)[C@@H](c1ccc(C(C)(C)C)cc1)n1nc(CF)c2c(=O)[nH]c(O)nc21 [Example 49, (S)-1-(1-(4-tert-Bulylphenyl)-2-melhylpropyl)-3-(fluoromethyl)-6-hydroxy-1H-pyrazolo[3,4-d]pyrimidin-4(5H)-one]",–,–,–,–,2.5,2.3
"C[C@@H](c1ccc(S(F)(F)(F)(F)F)cc1)n1nc(CF)c2c(=O)[nH]c(O)nc21 [Example 50, (S)-3-(Fluoromethyl)-6-hydroxy-1-(1-(4-(pentafluorolhio)phenyl)ethyl)-1H-pyrazolo[3,4-d]pyrimidin-4(5H)-one]",–,–,–,–,6.8,7
"Cc1ccc(C(C)n2nc(CCl)c3c(=O)[nH]c(O)nc32)cc1 (stereo not drawn) [Example 57, 3-(Chloromethyl)-6-hydroxy-1-(1-p-tolylethyl)-1H-pyrazolo[3,4-d]pyrimidin-4(5H)-one]",–,–,26,11,40,28
"Cc1nn(C(C)c2ccc(C(F)(F)F)cc2)c2nc(O)[nH]c(=O)c12 (stereo not drawn) [Example 58, 6-Hydroxy-3-methyl-1-{1-[4-(trifluoromethyl)phenyl]ethyl}-1,5-dihydro-4H-pyrazolo[3,4-d]pyrimidin-4-one]",–,–,69,49,–,–
"COc1nc2c(c(C)nn2C(C)c2ccc(C(F)(F)F)cc2)c(=O)[nH]1 (stereo not drawn) [Example 59, 6-Methoxy-3-methyl-1-{1-[4-(trifluoromethyl)phenyl]ethyl}-1,5-dihydro-4H-pyrazolo[3,4-d]pyrimidin-4-one]",–,–,1140,760,–,–
"Cc1nn(C(C)c2ccc(OC(F)(F)F)cc2)c2nc(O)[nH]c(=O)c12 (stereo not drawn) [Example 60, 6-Hydroxy-3-methyl-1-{1-[4-(trifluoromethoxy)phenyl]ethyl}-1,5-dihydro-4H-pyrazolo[3,4-d]pyrimidin-4-one]",–,–,278,207,–,–
"C[C@@H](c1ccc(C(F)(F)F)cc1)n1nc(CO)c2c(=O)[nH]c(N(C)C)nc21 [Example 154, (S)-6-(Dimethylamino)-3-(hydroxymethyl)-1-(1-(4-(trifluoromethyl)phenyl)ethyl)-1H-pyrazolo[3,4-d]pyrimidin-4(5H)-one]",–,–,–,–,0.57,0.55
"C[C@@H](c1ccc(C(F)(F)F)cc1)n1nc(CO)c2c(=O)[nH]c(N3CCCC3)nc21 [Example 156, 3-(Hydroxymethyl)-6-pyrrolidin-1-yl-1-{(1S)-1-[4-(trifluoromethyl)phenyl]ethyl}-1,5-dihydro-4H-pyrazolo[3,4-d]pyrimidin-4-one]",–,–,–,–,0.47,0.5
"C[C@@H](c1ccc(C(F)(F)F)cc1)n1nc(CO)c2c(=O)[nH]c(N3CC(F)C3)nc21 [Example 161, 6-(3-Fluoroazetidin-1-yl)-3-(hydroxymethyl)-1-{(1S)-1-[4-(trifluoromethyl)phenyl]ethyl}-1,5-dihydro-4H-pyrazolo[3,4-d]pyrimidin-4-one]",–,–,–,–,1.9,1.6
"C[C@@H](c1ccc(C(F)(F)F)cc1)n1nc(CF)c2c(=O)[nH]c(N3CCC3)nc21 [Example 225, 6-Azetidin-1-yl-3-(fluoromethyl)-1-{(1S)-1-[4-(trifluoromethyl)phenyl]ethyl}-1,5-dihydro-4H-pyrazolo[3,4-d]pyrimidin-4-one]",–,–,–,–,0.4,0.41
"C[C@@H](c1ccc(C(F)(F)F)cc1)n1nc(CF)c2c(=O)[nH]c(N3CCCC3)nc21 [Example 226, 3-(Fluoromethyl)-6-pyrrolidin-1-yl-1-{(1S)-1-[4-(trifluoromethyl)phenyl]ethyl}-1,5-dihydro-4H-pyrazolo[3,4-d]pyrimidin-4-one]",–,–,–,–,0.26,0.22
"Cc1nn(C(C)c2ccc(C(F)(F)F)cc2)c2nc(N3CCCC3)[nH]c(=O)c12 (stereo not drawn) [Example 268, 3-Methyl-6-pyrrolidin-1-yl-1-{1-[4-(trifluoromethyl)phenyl]ethyl}-1,5-dihydro-4H-pyrazolo[3,4-d]pyrimidin-4-one]",–,–,8,5.6,–,–
"CNc1nc2c(c(C)nn2C(C)c2ccc(C(F)(F)F)cc2)c(=O)[nH]1 (stereo not drawn) [Example 269, 3-Methyl-6-(methylamino)-1-(1-(4-(trifluoromethyl)phenyl)ethyl)-1,5-dihydro-4H-pyrazolo[3,4-d]pyrimidin-4-one]",–,–,139,85,–,–
"Cc1nn(C(C)c2ccc(C(F)(F)F)cc2)c2nc(N(C)C)[nH]c(=O)c12 (stereo not drawn) [Example 270, 6-(Dimethylamino)-3-methyl-1-{1-[4-(trifluoromethyl)phenyl]ethyl}-1,5-dihydro-4H-pyrazolo[3,4-d]pyrimidin-4-one]",–,–,6,3.9,–,–
"C[C@@H](c1ccc(C(F)(F)F)cc1)n1nc(CCO)c2c(=O)[nH]c(O)nc21 [Example 293, (S)-6-Hydroxy-3-(2-hydroxyethyl)-1-(1-(4-(trifluoromethyl)phenyl)ethyl)-1H-pyrazolo[3,4-d]pyrimidin-4(5H)-one]",–,–,–,–,12,10
"C[C@@H](c1ccc(C(F)(F)F)cc1)n1nc(CC#N)c2c(=O)[nH]c(O)nc21 [Example 298, (S)-2-(6-Hydroxy-4-oxo-1-(1-(4-(trifluoromethyl)phenyl)ethyl)-4,5-dihydro-1H-pyrazolo[3,4-d]pyrimidin-3-yl)acetonitrile]",–,–,–,–,5,4.7
"COCc1nn([C@@H](C)c2ccc(C(F)(F)F)cc2)c2nc(O)[nH]c(=O)c12 [Example 304, (S)-6-Hydroxy-3-(methoxymethyl)-1-(1-(4-(trifluoromethyl)phenyl)ethyl)-1,5-dihydro-4H-pyrazolo[3,4-d]pyrimidin-4-one]",–,–,–,–,43,46
